Assay results as given in US6974885B2, “Method for isolating pharmaceutically exploitable etidronate disodium” (Schering AG, priority 2000, dated 2005).
Counter-ions that a name gives are not always drawn.

Key:
[1] = Bulk density determination (graduated cylinder, unshaken); format: physicochemical; settings: end product
Protocol: Bulk Density Determination Bulk density was determined by means of a graduated cylinder (unshaken).

[2] = Particle size analysis (RETSCH screen analysis); format: physicochemical; settings: for particle size distribution, fraction 0.1-0.2 mm / particle size distribution, fraction 0.1 mm / particle size distribution, fraction 0.2-0.5 mm / particle size distribution, fraction 0.5-0.8 mm / particle size distribution, fraction 0.8-1.0 mm / particle size distribution, fraction 1.0 mm: end product; for particle size distribution, fraction 0.1-0.2 mm: screen fraction 0.1-0.2 mm; for particle size distribution, fraction 0.1 mm: screen fraction 0.1 mm; for particle size distribution, fraction 0.2-0.5 mm: screen fraction 0.2-0.5 mm; for particle size distribution, fraction 0.5-0.8 mm: screen fraction 0.5-0.8 mm; for particle size distribution, fraction 0.8-1.0 mm: screen fraction 0.8-1.0 mm; for particle size distribution, fraction 1.0 mm: screen fraction 1.0 mm
Excerpt: A RETSCH screen analysis system was used.

[3] = cited from earlier work

SMILES	bulk density [1]	particle size distribution, fraction 0.1-0.2 mm [2]	particle size distribution, fraction 0.1 mm [2]	particle size distribution, fraction 0.2-0.5 mm [2]	particle size distribution, fraction 0.5-0.8 mm [2]	particle size distribution, fraction 0.8-1.0 mm [2]	particle size distribution, fraction 1.0 mm [2]	solubility in organic solvents ([3]; all organic solvents)	water solubility ([3]; water)	particles <0.1 mm ([2]; maximum share of all particles)	particles >1 mm ([2]; maximum share of all particles)
CC(O)(P(=O)(O)O)P(=O)(O)O [Example 2, etidronate disodium]	0.51 g/mL	0.07%	0.0%	19.7%	54.9%	15.6%	9.71%	–	–	–	–
CC(O)(P(=O)(O)O)P(=O)(O)O [etidronate disodium, disodium salt of hydroxyethane-1,1-diphosphonicacid]	0.4 to 0.6 g/mL	–	–	–	–	–	–	nearly insoluble	high water solubility	≤ 5 wt. %	≤ 10 wt. %
CC(O)(P(=O)(O)O)P(=O)(O)O [Example 1, etidronate disodium]	0.48 g/mL	23.8%	0.07%	27.3%	46.2%	2.16%	0.47%	–	–	–	–
